Source: patent US8309558B2, “Compounds for the treatment of hepatitis C” (Bristol-Myers Squibb Company, priority 2008, dated 2012)
Read-outs that look alike come from different tables or passages of the source.

Tests used:
[1] = test system: HCV; conditions: cited from earlier work
[2] = target: T1, HCV NS5B RdRp genotype 1b (Hepatitis C virus genotype 1b, UniProt Q9WMX2); assay: Standard HCV NS5B RdRp enzyme assay; format: biochemical; conditions: HCV NS5B RdRp genotype 1b, read-out: IC50
T1 construct: The protein was expressed with an 18 amino acid C-terminal truncation to enhance the solubility; made in house; host or cells: E. coli BL21(DE3), pET21a vector
Method in brief: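 C-terminally truncated (18 aa) genotype 1b NS5B from E. coli, 28 nM, with 6 nM polyA template, 180 nM biotinylated oligo-dT12 primer and 3H-UTP (0.29 μM total UTP). Hepes pH 7.5 buffer with 2% DMSO; 60 min at 30° C. EDTA stop, SPA read-out; IC50 from seven concentrations by four-parameter fit.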

[3] = test system: HCV replicon cells; assay: HCV replicon FRET / luciferase assay (96-well plates); format: cell-based; conditions: Hepatitis C virus, HCV replicon, read-out: EC50
Method in brief: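 Replicon cells (with or without Renilla luciferase reporter) incubated with titrated compounds at 37 °C; Alamar blue read for cytotoxicity first. NS3 protease activity read kinetically with 20 μM EDANS/DABCYL FRET peptide in lysis reagent plus 150 mM NaCl (ex 340/em 490), or by Dual-Glo luciferase. EC50 = 50% signal reduction after protease-inhibitor background subtraction.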

[4] = test system: HUH-7 cells, constitutively expressing the HCV replicon; assay: HCV Replicon Luciferase Reporter Assay (384-well plates); format: cell-based; conditions: Hepatitis C virus, untitled table after Table 1b, *EC50 determined using 384 well plate method
Protocol: The HCV replicon luciferase assay was developed to monitor the inhibitory effects of compounds described in the disclosure on HCV viral replication. Utilization of a replicon luciferase reporter assay was first described by Krieger et al (Krieger N, Lohmann V, and Bartenschlager R, J. Virol. 75(10):4614-4624 (2001)). HUH-7 cells, constitutively expressing the HCV replicon, were grown in Dulbecco's Modified Eagle Media (DMEM) (Gibco-BRL) containing 10% Fetal calf serum (FCS) (Sigma) and 1 mg/ml G418 (Gibco-BRL). Compounds were serially diluted 3 folds in DMSO for a twenty-point titration and subsequently transferred to sterile 384-well tissue-culture treated plates (Corning cat #3571). The plates were then seeded with 50 μl of cells at a density of 3.0×10^3 cells/well in DMEM containing 4% FCS (final DMSO concentration at 0.5%). After 3 days incubation at 37° C., cells were analyzed for Renilla Luciferase activity using the EnduRen as substrate (Promega cat #E6485). The EnduRen substrate was diluted in DMEM and then added to the plates to a final concentration of 7.5 μM. The plates were incubated for 2 hrs at 37° C. and then read immediately for 30 seconds with Viewlux Imager (PerkinElmer) using a luminescence program. To assess cytotoxicity of compounds, CC50 values were generated by multiplexing the EnduRen-containing plates with Cell Titer-Blue (Promega, cat #G8082). 3 μl of Cell-Titer Blue was added to each well and incubated for 8 hrs at 37° C. The fluorescence signal from each well was read, with an excitation wavelength at 525/10 nm and an emission wavelength of 598/10 nm, using the Viewlux Imager.

[5] = untitled table after Table 1b, values without asterisk
[6] = second table titled Table 1d (numbers)
[7] = 24 h, second table titled Table 1d (numbers)

T1 sequence (Q9WMX2 2420-2992): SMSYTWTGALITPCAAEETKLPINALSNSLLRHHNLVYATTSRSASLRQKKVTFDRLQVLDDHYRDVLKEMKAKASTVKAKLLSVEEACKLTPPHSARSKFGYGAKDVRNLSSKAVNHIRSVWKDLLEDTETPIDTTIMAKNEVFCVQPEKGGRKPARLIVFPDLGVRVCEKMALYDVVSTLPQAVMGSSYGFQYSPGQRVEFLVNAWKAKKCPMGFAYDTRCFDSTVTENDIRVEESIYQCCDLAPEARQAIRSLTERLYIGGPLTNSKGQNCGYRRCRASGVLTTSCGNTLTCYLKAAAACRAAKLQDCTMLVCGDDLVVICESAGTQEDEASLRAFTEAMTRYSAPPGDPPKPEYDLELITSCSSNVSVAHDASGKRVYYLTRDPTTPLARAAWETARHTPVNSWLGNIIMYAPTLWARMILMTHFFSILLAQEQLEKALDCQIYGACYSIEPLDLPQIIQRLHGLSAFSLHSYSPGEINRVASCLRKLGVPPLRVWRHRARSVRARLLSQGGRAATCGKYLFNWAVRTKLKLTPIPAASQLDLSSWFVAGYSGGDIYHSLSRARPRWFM

SMILES: CNC(=O)c1c(-c2ccc(F)cc2)oc2cc(N(CCO)S(C)(=O)=O)c(C3CC3)cc12 [HCV-796]
- hepatic toxicity ([1]; patients, extended dosing of the combination regimens): hepatic toxicity observed
- HCV RNA levels in patients ([1]; single agent or combined with interferon and ribavirin): reduce HCV RNA levels in patients

SMILES: CNC(=O)c1c(-c2ccc(F)cc2)oc2ccc(-c3cc(C(=O)NC4(c5nc(C)no5)CC4)c(OC)cc3C)cc12 [drawing 500]
- IC50 ([2]; Table 1b): < 250 nM
- EC50 ([3]; Table 1b): < 250 nM

SMILES: CNC(=O)c1c(-c2ccc(F)cc2)oc2ccc(-c3cc(C(=O)NC4(c5ccncc5)CC4)ccc3C)cc12 [drawing 501]
- IC50 ([2]; Table 1b): < 250 nM
- EC50 ([3]; Table 1b): < 250 nM

SMILES: CNC(=O)c1c(-c2ccc(F)cc2)oc2ccc(-c3cc(C(=O)NC4(c5ccccn5)CC4)cc(F)c3C)cc12 [drawing 558]
- IC50 ([2]; Table 1b): < 250 nM
- EC50 ([3]; Table 1b): < 250 nM

SMILES: CNC(=O)c1c(-c2ccc(F)cc2)oc2ccc(-c3cc(C(=O)NC4(c5ncccn5)CC4)ccc3C)cc12 [drawing 570]
- IC50 ([2]; Table 1b): < 250 nM
- EC50 ([3]; Table 1b): < 250 nM

SMILES: CNC(=O)c1c(-c2ccc(F)cc2)oc2ccc(-c3cc(C(=O)NC4(c5ncccn5)CC4)ccc3C)c(F)c12 [drawing 587]
- IC50 ([2]; Table 1b): < 250 nM
- EC50 ([3]; Table 1b): < 250 nM

SMILES: CNC(=O)c1c(-c2ccc(F)cc2)oc2ccc(-c3cc(C(=O)NC4(c5nc(C)no5)CC4)c(OC)cc3C)cc12 [drawing 598]
- EC50 [4]: 1.6 nM
- IC50 ([2]; untitled table after Table 1b): 20 nM

SMILES: CNC(=O)c1c(-c2ccc(F)cc2)oc2ccc(-c3cc(C(=O)NC4(c5ncccn5)CC4)ccc3C)cc12 [drawing 599]
- EC50 [4]: 0.304 nM
- IC50 ([2]; untitled table after Table 1b): < 20 nM

SMILES: CNC(=O)c1c(-c2ccc(F)cc2)oc2ccc(-c3cc(C(=O)NC4(c5ccccn5)CC4)cc(F)c3C)cc12 [drawing 600]
- EC50 [4]: 0.425 nM
- IC50 ([2]; untitled table after Table 1b): 10 nM

SMILES: CNC(=O)c1c(-c2ccc(F)cc2)oc2ccc(-c3cc(C(=O)NC4(c5ccccc5)CC4)ccc3C)cc12 [drawing 601]
- EC50 [4]: 0.786 nM
- IC50 ([2]; untitled table after Table 1b): 20 nM

SMILES: CNC(=O)c1c(-c2ccc(F)cc2)oc2ccc(-c3cc(C(=O)NC4(c5nc(C)no5)CC4)ccc3C)cc12 [drawing 602]
- EC50 [4]: 0.805 nM
- IC50 ([2]; untitled table after Table 1b): 7.2 nM

SMILES: CNC(=O)c1c(-c2ccc(F)cc2)oc2ccc(-c3cc(C(=O)NC4(c5ccncc5)CC4)ccc3C)cc12 [drawing 603]
- EC50 [4]: 0.83 nM
- IC50 ([2]; untitled table after Table 1b): 3.95 nM

SMILES: CNC(=O)c1c(-c2ccc(F)cc2)oc2ccc(-c3cc(C(=O)NC4(c5ccccc5)CC4)ccc3OC)cc12 [drawing 604]
- IC50 ([2]; untitled table after Table 1b): 9.95 nM
- EC50 [3, 5]: 1.78 nM

SMILES: CNC(=O)c1c(-c2ccc(F)cc2)oc2ccc(-c3cc(C(=O)NC4(c5ccccn5)CC4)ccc3Cl)cc12 [drawing 605]
- IC50 ([2]; untitled table after Table 1b): 10 nM
- EC50 [3, 5]: 1.83 nM

SMILES: CNC(=O)c1c(-c2ccc(F)cc2)oc2ccc(-c3cc(C(=O)NC4(c5ccccn5)CC4)ccc3C)cc12 [drawing 606]
- IC50 ([2]; untitled table after Table 1b): 8.6 nM
- EC50 [3, 5]: 1.95 nM

SMILES: CNC(=O)c1c(-c2ccc(F)cc2)oc2cc(N)c(-c3cccc(C(=O)NC(C)(C)c4ccccc4)c3)cc12 [drawing 607]
- IC50 ([2]; untitled table after Table 1b): 5.45 nM
- EC50 [3, 5]: 2.47 nM

SMILES: CNC(=O)c1c(-c2ccc(F)cc2)oc2ccc(-c3cc(C(=O)NC(C)(C)c4ccccc4)ccc3OC)cc12 [drawing 608]
- IC50 ([2]; untitled table after Table 1b): 9.65 nM
- EC50 [3, 5]: 3.04 nM

SMILES: CNC(=O)c1c(-c2ccc(F)cc2)oc2ccc(-c3cc(C(=O)NC4(c5ccccc5)CC4)ccc3F)cc12 [drawing 609]
- IC50 ([2]; untitled table after Table 1b): 20 nM
- EC50 [3, 5]: 3.57 nM

SMILES: CNC(=O)c1c(-c2ccc(F)cc2)oc2ccc(-c3cccc(C(=O)NC4(c5ccccc5)CC4)c3)cc12 [drawing 610]
- IC50 ([2]; untitled table after Table 1b): 5.9 nM
- EC50 [3, 5]: 3.58 nM

SMILES: CNC(=O)c1c(-c2ccc(F)cc2)oc2ccc(-c3cccc(C(=O)N4CCCCC4C)c3)cc12 (stereo not shown) [drawing 611]
- IC50 ([2]; untitled table after Table 1b): 290 nM
- EC50 [3, 5]: 1130 nM

SMILES: CNC(=O)c1c(-c2ccc(F)cc2)oc2ccc(-c3cccc(C(=O)N[C@H]4CCC[C@H]4c4ccc(Cl)cc4)c3)cc12 [drawing 612]
- IC50 ([2]; untitled table after Table 1b): > 12500 nM
- EC50 [3, 5]: 1130 nM

SMILES: CNC(=O)c1c(-c2ccc(F)cc2)oc2ccc(-c3cccc(C(=O)N[C@@H](CO)C(C)C)c3)cc12 [drawing 613]
- IC50 ([2]; untitled table after Table 1b): 800 nM
- EC50 [3, 5]: 1250 nM

SMILES: CCCC[C@H](CO)NC(=O)c1cccc(-c2ccc3oc(-c4ccc(F)cc4)c(C(=O)NC)c3c2)c1 [drawing 614]
- IC50 ([2]; untitled table after Table 1b): 600 nM
- EC50 [3, 5]: 1260 nM

SMILES: CNC(=O)c1c(-c2ccc(F)cc2)oc2ccc(-c3cccc(C(=O)NCCOC)c3)cc12 [drawing 615]
- IC50 ([2]; untitled table after Table 1b): 1710 nM
- EC50 [3, 5]: 1340 nM

SMILES: CNC(=O)c1c(-c2ccc(F)cc2)oc2ccc(-c3cccc(C(=O)N(C)CCC#N)c3)cc12 [drawing 616]
- IC50 ([2]; untitled table after Table 1b): 800 nM
- EC50 [3, 5]: 1380 nM

SMILES: CCC[C@H](CO)NC(=O)c1cccc(-c2ccc3oc(-c4ccc(F)cc4)c(C(=O)NC)c3c2)c1 [drawing 617]
- IC50 ([2]; untitled table after Table 1b): 1150 nM
- EC50 [3, 5]: 1390 nM

SMILES: CN1CN(C)c2c(-c3cccc(C(N)=O)c3)ccc3oc(-c4ccc(F)cc4)c(c23)C1=O [drawing 619]
- IC50 ([2]; untitled table after Table 1b): > 12500 nM
- EC50 [3, 5]: 13700 nM

SMILES: CNC(=O)c1c(-c2ccc(F)cc2)oc2ccc(-c3ccc(C(=O)N(C)Cc4cccnc4)cc3)cc12 [drawing 620]
- IC50 ([2]; untitled table after Table 1b): 9920 nM
- EC50 [3, 5]: 15100 nM

SMILES: CNC(=O)c1c(-c2ccc(F)cc2)oc2ccc(-c3ccc(C(=O)N4CCC[C@@H]4COC)cc3)cc12 [drawing 621]
- IC50 ([2]; untitled table after Table 1b): 10400 nM
- EC50 [3, 5]: 15400 nM

SMILES: CNC(=O)c1c(-c2ccc(F)cc2)oc2ccc(-c3cccc(C(=O)N4CC[C@H](NC(C)=O)C4)c3)cc12 [drawing 622]
- IC50 ([2]; untitled table after Table 1b): 7130 nM
- EC50 [3, 5]: 16100 nM

SMILES: CNC(=O)c1c(-c2ccc(F)cc2)oc2ccc(-c3cc(C(=O)NC4(c5ncccn5)CC4)ccc3C)c(F)c12 [drawing 623]
- EC50 [4]: 5.68 nM

SMILES: CNC(=O)c1c(-c2ccc(F)cc2)oc2ccc(-c3cc(C(=O)NC4(c5ncc(C)s5)CC4)ccc3C)cc12 [drawing 625]
- IC50 ([2]; Table 1d (class symbols)): < 20 nM
- EC50 ([3]; 24 h, Table 1d (class symbols)): 1 to 250 nM

SMILES: CNC(=O)c1c(-c2ccc(F)cc2)oc2ccc(-c3cc(C(=O)NC4(c5ccccn5)CC4)c(OCc4cnccn4)cc3C)cc12 [drawing 660]
- IC50 ([2]; Table 1d (class symbols)): 1 to 250 nM
- EC50 ([3]; 24 h, Table 1d (class symbols)): 1 to 250 nM

SMILES: CNC(=O)c1c(-c2ccc(F)cc2)oc2ccc(-c3cc(C(=O)NC4(c5ncccn5)CC4)cc(F)c3C)c(F)c12 [drawing 668]
- IC50 ([2]; Table 1d (class symbols)): 1 to 250 nM
- EC50 ([3]; 24 h, Table 1d (class symbols)): 1 to 250 nM

SMILES: CNC(=O)c1c(-c2ccc(F)cc2)oc2ccc(-c3cc(C(=O)NC4(c5ncc(C)s5)CC4)ccc3C)cc12 [drawing 708]
- IC50 [2, 6]: < 17 nM
- EC50 [3, 7]: 1.9 nM

SMILES: CNC(=O)c1c(-c2ccc(F)cc2)oc2ccc(-c3cc(C(=O)NC4(c5ccccn5)CC4)c(OCc4cnccn4)cc3C)cc12 [drawing 711]
- IC50 [2, 6]: 2.1 nM
- EC50 [3, 7]: 1 nM

SMILES: CNC(=O)c1c(-c2ccc(F)cc2)oc2ccc(-c3cc(C(=O)NC4(c5ncccn5)CC4)cc(F)c3C)c(F)c12 [drawing 712]
- IC50 [2, 6]: 8.1 nM
- EC50 [3, 7]: 2.4 nM
